# Marks after values point to notes of the source that are not given here. Non-standard residues stand in square brackets, D forms with d. No end group written: not given here.
# Tests used:
# serum GH = assay: Serum GH levels in tilapia injected with GHRP-6 (ELISA); assay type: in vivo; settings: 15 min after intraperitoneal injection, 0.1 μg/gbw
# Experimental: (§1) Fifteen tilapias with average weight 71±28 g were used for the experiment. The GHRP-6 was injected with hexapeptide at 0.1 μg/gbw. The liver and blood samples were drawn before the treatment and 15 min, 30 min, 1 h and 6 h after the peptide injection (three animals per group). The serum and liver sample were collected and stored at −70° C. until used for total RNA isolation and Northern blot analysis. A serum sample was also taken before the treatment in all animals.
# Serum GH levels were determined by ELISA using two monoclonal antibodies against tilapia GH (Muñoz et al, in preparation).
# tilapia IGF mRNA = assay: Hepatic IGF mRNA levels in tilapia injected with GHRP-6 (Northern blot); assay type: in vivo; settings: 0.1 μg/gbw
# Experimental: as §1
# Northern blot analysis was used to measure the relative IGF mRNA levels in tilapia injected with the peptide. Total RNA was purified from liver samples as described by Chomczynski and Sacchi (Chomczynski P, Sacchi N. Single step method of RNA isolation by acid guanidium thiocyanate-phenol-chloroform extraction. Anal Biochem 1987; 162:156-59). Twenty μg of RNA were fractionated on 1% formaldehyde agarose gels and transferred to nylon membranes (Hybond N, Amersham UK) and hybridized with a tilapia IGF-I cDNA probe and subsequently rehybridized with a human gliceraldehyde 3 phosphate dehydrogenase cDNA (GAPDH, kindly given by Dr. Bryan Williams, Cleveland Foundation, OH, USA) to normalize the signals. Hybridization signals were quantified by digital image processing of scanned gels with a Hewlett Packard Scanjet Plus scanner. Images were processed with the Bandleader computer program. […]
# juvenile tilapia [1] = assay: Growth promoting activity in juvenile tilapia, intraperitoneal injection; assay type: in vivo, Oreochromis aureus; settings: intraperitoneal 0.1 μg/gbw twice a week, three weeks; P<0.05
# Experimental: Juvenile hybrid tilapia (Oreochromis aureus) supplied by the Aquadique Aquaculture Station (Havana, Cuba) were acclimated in a 500 litters tank with re-circulating freshwater at 25° C. with constant photoperiod (14 hours light and 10 hours darkness) and fed with commercially prepared pellets (CENPALAB, Havana, Cuba). Daily rations equivalent to 5% of body weight were administered twice a day until they were used in the experiments.
# GHRP-6 (BACHEM, Switzerland) was diluted in PBS and injected twice a week during three weeks at 0.1 μg per gram of fish body weight (gbw). The peptide was administered to a group of eight male tilapia with average body weight of 61±14.3 g and seven male tilapia with average body weight of 61.41±29.67 g were injected with PBS as a control group.
# (§2) Body weight in grams was measured weekly. In all the experiments the animals were labeled with microchips (Stoelting Co. Wood Dale, U.S.A.).
# juvenile tilapia [2] = assay: Growth promoting activity in juvenile tilapia, oral intubation (non encapsulated and encapsulated peptide); assay type: in vivo, Oreochromis aureus
# Experimental: as §2
# GHRP-6 peptide was diluted in phosphate buffered saline (PBS) and administered through a plastic tube to the pharyngeal cavity to a group of seven male tilapia with average body weight 87.22±14.1 g. PBS was delivered to the control group (n=7, all male tilapia) with average weight 89.22±7.66 g. The treatment was done twice a week during three weeks at 0.1 μg/gbw. Body weight in grams was measured weekly. (FIG. 3)
# For the encapsulation of peptide the capsules were obtained as previously reported by Knorr et al., 1988; using chitosan and alginic acid encapsulated peptide. The hexapeptide GHRP-6 was administered through a plastic tube to the pharyngeal cavity to seven male tilapia with average body weight 89.09±8.38 g. Polymer beads without peptide were administered to seven male tilapia with average weight 89.86±13.54 g as a control group. The treatment was performed twice a week at 0.14 μg/gbw. (FIG. 4)
# tilapia [3] = assay: Weigh of tilapia treated with GHRP-6 by immersion; assay type: in vivo, Oreochromis aureus; settings: for Mean weigh ± DS: once a week for 45 days
# Experimental: (§3) Tilapias (Oreochromis aureus) of 1.5 g of mean weigh were treated by immersion with two different doses of GHRP-6 (10 μg/100 ml and 100 μg/100 ml). A similar control group was treated with physiological solution.
# (§4) In the experiment was measured the weigh (Table 1), biochemical blood parameters (Table 2), number of parasite in gill (Trichodinicos (Table 3) y Helmintos mongeneos (Table 4)) and humidity and protein concentration in muscle
# (§5) Fifteen animals per group (3×) with mean weigh of 1 g were selected for the assay. In 9 tank of 40 liters were developed the experiment. One a week application was done for 45 days.
# (§6) • Group I 10 μg/100 ml (Treatment 1) • Group II 100 μg/100 ml (Treatment 2) • Group III Control (Physiological solution)
# protozoo Trichodina sp. = assay: Invasion intensity and extension of Trichodina sp. in tilapia treated by immersion; assay type: in vivo
# Experimental: as §3, §4, §5, §6
# Helmintos monogeneos = assay: Invasion intensity and extension of Helmintos monogeneos in the gill of tilapia treated by immersion; assay type: in vivo; settings: for I: Invasion intensity: in the gill per fish
# Experimental: as §3, §4, §5, §6
# tilapia [4] = assay: Humidity and protein concentration in muscle of tilapia treated by immersion; assay type: in vivo, Oreochromis aureus
# Experimental: as §3, §4, §5, §6
# [5] = tested on: shrimp Litopenaeus schmitti larvae; assay: Growth promoting activity in shrimp larvae treated by immersion; assay type: in vivo
# Experimental: Three different doses of GHRP-6 were applied by immersion to groups or shrimp larvae. The application was made each three days. Four applications were made for each group, including one control group receiving bovine serum albumin (BSA). The treatment was made per 1 hour to a concentration of GHRP-6 per liter of seawater as follow: • Group 1: 0.001 mg/L • Group 2: 0.01 mg/L • Group 3: 0.1 mg/L • Group 4: 1 mg of BSA/L
# [6] = tested on: larvae shrimp Litopeneaus schmitti; assay: Shrimp larvae treated by immersion in production conditions; assay type: in vivo, Litopenaeus schmitti; settings: production condition, vs non-treated group
# Text: FIG. 8. Growth rate of larvae shrimp Litopeneaus schmitti in production conditions treated with GHRP-6 by immersion. The experiment was follow by six week. ***t-test p<0.001. Bars indicate standard error
# In production condition the survival rate of the larvae was increased in 20% in the group treated with the GHRP-6 in comparison with the non-treated group. […] On the other hand the uniformity of the animals was higher in the group treated with the hexapeptide and the variation coefficient was lower in weigh and size (FIG. 8).
# [7] = Grupo I, immersion 10 μg/100 mL
# [8] = Grupo II, immersion 100 μg/100 mL
# [9] = comparison II-III (100 μg/100 mL vs saline), significant
# [10] = comparison III-I (saline vs 10 μg/100 mL), significant
# [11] = comparison III-I (saline vs 10 μg/100 mL)
# [12] = 0.1 mg/L immersion, statistically significant
# [13] = 0.1 mg/L, four 1 hour immersions, each three days, vs BSA control
substance,measurement,setting,value
"His-D-Trp-Ala-Trp-D-Phe-Lys-NH2 (H[dW]AW[dF]K-NH2) [GHRP-6, known GH releasing hexapeptide (GH secretagogue), bought from BACHEM]",serum GH levels,serum GH,increased
same,level of hepatic IGF mRNA,tilapia IGF mRNA; 30 min after intraperitoneal injection,increased significantly
same,level of hepatic IGF mRNA,tilapia IGF mRNA; six hours after intraperitoneal injection,backing to the normal value
same,growth (increase in growth rate) vs control,juvenile tilapia [1],significantly stimulated growth
same,"body weight gain, encapsulated vs non encapsulated orally intubated treatment","juvenile tilapia [2]; comparison between both oral treatments, P<0.05",higher body weight gain
same,body weight to the end of the treatment vs control,juvenile tilapia [2]; orally intubated encapsulated peptide,statistically differences in the body weight
same,Mean weigh ± DS,tilapia [3]; [7],4.56 ± 1.07 g
same,Mean weigh ± DS,tilapia [3]; [8],4.54 ± 1.38 g
same,"Statistically difference, mean weigh",tilapia [3]; comparison I-II (10 vs 100 μg/100 mL),0.01454
same,"Statistically difference, mean weigh",tilapia [3]; [9],1.072*
same,"Statistically difference, mean weigh",tilapia [3]; [10],1.086*
same,E: Invasion extension,protozoo Trichodina sp.; [7],100%
same,I: Invasion intensity,protozoo Trichodina sp.; [7],7.73
same,E: Invasion extension,protozoo Trichodina sp.; [8],84.6%
same,I: Invasion intensity,protozoo Trichodina sp.; [8],2.80
same,"Statistically difference, Trichodina sp. invasion",protozoo Trichodina sp.; comparison I-II,(4.42)
same,"Statistically difference, Trichodina sp. invasion",protozoo Trichodina sp.; [9],(5.84)*
same,"Statistically difference, Trichodina sp. invasion",protozoo Trichodina sp.; [11],(1.42)
same,E: Invasion extension,Helmintos monogeneos; [7],34.7%
same,I: Invasion intensity,Helmintos monogeneos; [7],0.39
same,E: Invasion extension,Helmintos monogeneos; [8],50%
same,I: Invasion intensity,Helmintos monogeneos; [8],0.66
same,"Statistically difference, Helmintos monogeneos invasion",Helmintos monogeneos; comparison I-II,(0.304)
same,"Statistically difference, Helmintos monogeneos invasion",Helmintos monogeneos; comparison II-III (100 μg/100 mL vs saline),(0.521)
same,"Statistically difference, Helmintos monogeneos invasion",Helmintos monogeneos; [10],(0.826)*
same,Mean humidity ± SD in muscle,tilapia [4]; [7],82.96 ± 3.63%
same,Mean humidity ± SD in muscle,tilapia [4]; [8],83.5 ± 3.31%
same,"Statistically difference, humidity in muscle",tilapia [4]; comparison I-II,(0.791)
same,"Statistically difference, protein concentration","tilapia [4]; comparison I-II, significant",(1.160)*
same,"Statistically difference, humidity in muscle",tilapia [4]; [9],(2.666)*
same,"Statistically difference, protein concentration",tilapia [4]; [9],(1.38)*
same,"Statistically difference, humidity in muscle",tilapia [4]; [11],(3.458)
same,"Statistically difference, protein concentration",tilapia [4]; [10],(2.64)*
same,number of bone rostral,[5]; [12],increase
same,number of gill ramifications,[5]; [12],increase
same,increase of mean size,[5]; [13],26%
same,increase of mean weigh,[5]; [13],153%
same,relation Protein/DNA in muscle,[5]; all treated animals vs control,increased
same,relation RNA/DNA in muscle,[5]; all treated animals vs control,increased
same,water content in the muscle,[5]; all treated animals vs control,lower water content in the muscle
same,increase of size,[6],37%
same,increase of survival rate of the larvae,[6],20%
same,increase of weigh,[6],115%
same,uniformity of the animals,[6],higher
same,variation coefficient in weigh and size,[6],lower
